Data reported in PubChem BioAssay AID248 (DTP/NCI, 2004).
“And” between values parts separate entries of the source, which are not always exact repeats. Equal entries are not always repeated. Inconclusive results and toxic doses are left out. No stated cut-off is given here; in the data, active means T/C of 150% or more; inactive means T/C below 125%.

System: L1210 leukemia ip in BDF1 mice, survival T/C
Assay: NCI In Vivo Anticancer Drug Screen. Data for tumor model L1210 Leukemia (intraperitoneal) in B6D2F1 (BDF1) mice
Conditions: endpoint: mean survival time, higher = longer survival
Procedure, shortened: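 Ratio derived from survival: compound-dosed mice over vehicle-dosed mice, all bearing a transplantable tumor.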

[1] = dose: 100.0 mg/kg/injection, schedule: Q01DX009 (ip), vehicle: saline
[2] = dose: 200.0 mg/kg/injection, schedule: Q01DX009 (ip), vehicle: saline
[3] = dose: 400.0 mg/kg/injection, schedule: Q01DX009 (ip), vehicle: saline
[4] = dose: 100.0 mg/kg/injection, schedule: Q01DX009 (ip), vehicle: Klucel (hydroxypropylcellulose) (HPC)
[5] = dose: 100.0 mg/kg/injection, schedule: Q04DX003 (ip), vehicle: saline
[6] = dose: 200.0 mg/kg/injection, schedule: Q01DX009 (ip), vehicle: Klucel (hydroxypropylcellulose) (HPC)
[7] = dose: 200.0 mg/kg/injection, schedule: Q04DX003 (ip), vehicle: saline
[8] = dose: 400.0 mg/kg/injection, schedule: Q01DX009 (ip), vehicle: Klucel (hydroxypropylcellulose) (HPC)
[9] = dose: 400.0 mg/kg/injection, schedule: Q04DX003 (ip), vehicle: saline
[10] = dose: 100.0 mg/kg/injection, schedule: Q01DX001 (ip), vehicle: saline with Tween-80
[11] = dose: 12.5 mg/kg/injection, schedule: Q01DX009 (ip), vehicle: saline with Tween-80
[12] = dose: 25.0 mg/kg/injection, schedule: Q01DX009 (ip), vehicle: saline with Tween-80
[13] = dose: 100.0 mg/kg/injection, schedule: Q04DX003 (ip), vehicle: saline with Tween-80
[14] = dose: 200.0 mg/kg/injection, schedule: Q04DX003 (ip), vehicle: saline with Tween-80
[15] = dose: 100.0 mg/kg/injection, schedule: Q01DX001 (ip), vehicle: saline
[16] = dose: 200.0 mg/kg/injection, schedule: Q01DX001 (ip), vehicle: saline
[17] = dose: 400.0 mg/kg/injection, schedule: Q01DX001 (ip), vehicle: saline
[18] = dose: 50.0 mg/kg/injection, schedule: Q01DX009 (ip), vehicle: saline with Tween-80

Measured: T/C

NC12CC3CC(C1)CC(F)(C3)C2
inactive: dose: 50.0 mg/kg/injection, schedule: Q01DX009 (ip), vehicle: saline 101 % of control | [1] 99 % of control | [2] 101 % of control | [3] 93 % of control

O=[N+]([O-])c1ccc(C(Br)C(Br)c2ccccc2Br)cc1 (stereo unspecified)
inactive: [4] 98 % of control | [5] 96 % of control | [6] 102 % of control | [7] 98 % of control | [8] 98 % of control | [9] 96 % of control

O=c1cc(NCc2ccc(Cl)cc2)[nH]c(=O)[nH]1
inactive: [10] 108 % of control | dose: 200.0 mg/kg/injection, schedule: Q01DX001 (ip), vehicle: saline with Tween-80 95 % of control | dose: 400.0 mg/kg/injection, schedule: Q01DX001 (ip), vehicle: saline with Tween-80 98 % of control

CN1CN(C2CCCCC2)CSC1=S
inactive: dose: 100.0 mg/kg/injection, schedule: Q01DX001 (ip), vehicle: acetone 95 % of control | dose: 100.0 mg/kg/injection, schedule: Q04DX003 (ip), vehicle: acetone 101 % of control | [5] 101 % of control | dose: 200.0 mg/kg/injection, schedule: Q01DX001 (ip), vehicle: acetone 92 % of control | dose: 200.0 mg/kg/injection, schedule: Q04DX003 (ip), vehicle: acetone 106 % of control | [7] 102 % of control | dose: 400.0 mg/kg/injection, schedule: Q01DX001 (ip), vehicle: acetone 100 % of control | dose: 400.0 mg/kg/injection, schedule: Q04DX003 (ip), vehicle: acetone 94 % of control | [9] 98 % of control

CCC[CH2][Sn]([CH2]CCC)=[N]S(=O)(=O)c1ccc(Cl)c(C)c1
inactive: dose: 5.0 mg/kg/injection, schedule: Q01DX001 (ip), vehicle: saline 98 % of control | dose: 10.0 mg/kg/injection, schedule: Q01DX001 (ip), vehicle: saline 98 % of control | dose: 20.0 mg/kg/injection, schedule: Q01DX001 (ip), vehicle: saline 109 % of control

CSCC1OC(n2cnc3c(N)nc(Cl)nc32)C(O)C1O (stereo unspecified)
inactive: dose: 3.12 mg/kg/injection, schedule: Q01DX009 (ip), vehicle: saline with Tween-80 97 % of control | dose: 6.25 mg/kg/injection, schedule: Q01DX009 (ip), vehicle: saline with Tween-80 102 % of control | [11] 107 % of control | [12] 91 % of control | dose: 25.0 mg/kg/injection, schedule: Q04DX003 (ip), vehicle: saline with Tween-80 97 % of control | dose: 50.0 mg/kg/injection, schedule: Q04DX003 (ip), vehicle: saline with Tween-80 101 % of control | [10] 95 % of control | [13] 108 % of control

OC(c1cc(C(F)(F)F)nc2c(F)cccc12)C1CCCCN1 (stereo unspecified)
inactive: [13] 102 % of control | [14] 105 % of control | dose: 400.0 mg/kg/injection, schedule: Q04DX003 (ip), vehicle: saline with Tween-80 96 % of control

COc1cc(C2=C3C(=O)OC[C@@H]3Cc3cc4c(cc32)OCO4)cc(OC)c1OC
inactive: [15] 94 % of control | [4] 91 % of control | dose: 100.0 mg/kg/injection, schedule: Q04DX003 (ip), vehicle: Klucel (hydroxypropylcellulose) (HPC) 95 % of control | [5] 105 % of control | [16] 104 % of control | [6] 94 % of control | dose: 200.0 mg/kg/injection, schedule: Q04DX003 (ip), vehicle: Klucel (hydroxypropylcellulose) (HPC) 97 % of control | [7] 96 % of control | [17] 93 % of control | [8] 96 % of control | dose: 400.0 mg/kg/injection, schedule: Q04DX003 (ip), vehicle: Klucel (hydroxypropylcellulose) (HPC) 92 % of control | [9] 101 % of control

CCS(=O)(=O)c1ccc(C)cc1
inactive: [15] 95 % of control | [1] 89 % of control | [5] 109 % of control | [16] 93 % of control | [2] 95 % of control | [7] 95 % of control | [17] 96 % of control | [3] 87 % of control | [9] 98 % of control

c1ccc(-c2c[nH]c(-c3ccccc3)c2-c2ccccc2)cc1
inactive: dose: 75.0 mg/kg/injection, schedule: Q01DX001 (ip), vehicle: carboxymethylcellulose (CMC) 93 % of control | dose: 150.0 mg/kg/injection, schedule: Q01DX001 (ip), vehicle: carboxymethylcellulose (CMC) 93 % of control | dose: 300.0 mg/kg/injection, schedule: Q01DX001 (ip), vehicle: carboxymethylcellulose (CMC) 93 % of control

CCCCn1nnc2c(NCCc3cnc[nH]3)nc(N)nc21
inactive: [18] 93 % of control | dose: 100.0 mg/kg/injection, schedule: Q01DX009 (ip), vehicle: saline with Tween-80 95 % of control | [13] 89 % of control | [14] 89 % of control

COc1ccc(Cc2c3cc(OC)c(OC)cc3cc[n+]2C)cc1OC
inactive: [11] 103 % of control | [12] 100 % of control | [18] 105 % of control and 106 % of control | [13] 98 % of control | [14] 95 % of control

COc1ccc(/C=N/NC(=O)c2ccc(N=NN(C)C)cc2)c(OC)c1
inactive: dose: 75.0 mg/kg/injection, schedule: Q04DX003 (ip), vehicle: Klucel (hydroxypropylcellulose) (HPC) 104 % of control | dose: 150.0 mg/kg/injection, schedule: Q04DX003 (ip), vehicle: Klucel (hydroxypropylcellulose) (HPC) 97 % of control | dose: 300.0 mg/kg/injection, schedule: Q04DX003 (ip), vehicle: Klucel (hydroxypropylcellulose) (HPC) 99 % of control

NC(=O)/C=C\C(=O)O (tested in a mixture with another compound)
inactive: dose: 31.25 mg/kg/injection, schedule: Q#A X Z (ip), vehicle: carboxymethylcellulose (CMC) 106 % of control | dose: 62.5 mg/kg/injection, schedule: Q#A X Z (ip), vehicle: carboxymethylcellulose (CMC) 110 % of control | dose: 125.0 mg/kg/injection, schedule: Q#A X Z (ip), vehicle: carboxymethylcellulose (CMC) 118 % of control | dose: 250.0 mg/kg/injection, schedule: Q#A X Z (ip), vehicle: carboxymethylcellulose (CMC) 108 % of control
